This note sets out measurements from article PMC10599993, “The PTPN2/PTPN1 inhibitor ABBV-CLS-484 unleashes potent anti-tumour immunity” (Nature, 2023).

In one experiment the target is ITK (Homo sapiens, UniProt Q08881). In words: biochemical. Details: Kinase selectivity panel, IC50 of AC484 (Supplementary Table 1).
The target of the next experiment is MAP2K3 (Homo sapiens, UniProt P46734). In words: biochemical. Details: Kinase selectivity panel, IC50 of AC484 (Supplementary Table 1).
Another experiment has as its target CAMKK2 (Homo sapiens, UniProt Q96RR4). Description: biochemical. Further details: Kinase selectivity panel, IC50 of AC484 (Supplementary Table 1).
Another experiment concerns the target CDK8/Cyclin C (Homo sapiens, UniProt P49336). In words: biochemical. Further details: Kinase selectivity panel, IC50 of AC484 (Supplementary Table 1).
Another experiment addresses CAMK1D (Homo sapiens, UniProt Q8IU85). In words: biochemical. Further details: Kinase selectivity panel, IC50 of AC484 (Supplementary Table 1).
The target of another experiment is Zap70 (Homo sapiens, UniProt P43403). In words: biochemical. Details: Kinase selectivity panel, IC50 of AC484 (Supplementary Table 1).
In a further experiment the target is Pim1 (Homo sapiens, UniProt P11309). In words: biochemical. Further details: Kinase selectivity panel, IC50 of AC484 (Supplementary Table 1).
A further experiment has as its target ACVR1 (Homo sapiens, UniProt Q04771). Description: biochemical. Details: Kinase selectivity panel, IC50 of AC484 (Supplementary Table 1).
Another experiment has as its target T1, Zipk (Homo sapiens, UniProt O43293).
T1 construct: gene DAPK3
In words: biochemical. Details: Kinase selectivity panel, IC50 of AC484 (Supplementary Table 1).

A further experiment deals with T2, TAK1-TAB1 (Homo sapiens, UniProt O43318).
T2 construct: gene MAP3K7
Description: biochemical. Further details: Kinase selectivity panel, IC50 of AC484 (Supplementary Table 1).

The target of the next experiment is ErbB4 (Homo sapiens, UniProt Q15303). In words: biochemical. Further details: Kinase selectivity panel, IC50 of AC484 (Supplementary Table 1).
For a further experiment, the target named is T3, PKC alpha-UBI (Homo sapiens, UniProt P17252).
T3 construct: gene PRKCA
In words: biochemical. Further details: Kinase selectivity panel, IC50 of AC484 (Supplementary Table 1).

The next experiment addresses FGR (Homo sapiens, UniProt P09769). Description: biochemical. Further details: Kinase selectivity panel, IC50 of AC484 (Supplementary Table 1).
The target of another experiment is TXK (Homo sapiens, UniProt P42681). Description: biochemical. Details: Kinase selectivity panel, IC50 of AC484 (Supplementary Table 1).
A further experiment concerns the target T4, PTPN1 (Homo sapiens, UniProt P18031).
T4 construct: full-length recombinant
Description: mobility shift enzyme assay with labelled insulin receptor phosphopeptide (crystal with PTPN1 mentioned, data not shown). Type of experiment: biochemical.

A further experiment addresses T5, B2 (Homo sapiens, UniProt P30411).
T5 construct: gene BDKRB2
In words: biochemical. The following applies: agonist radioligand. Further details: Safety pharmacology off-target panel at Eurofins, radioligand binding with agonist or antagonist radioligand (Supplementary Table 2). As to the method:
(§1) Wide-range phosphatase, kinase and preclinical safety pharmacology off-target activity screens were conducted at Eurofins (Extended Data Table 5 and Supplementary Tables 1 and 2). A small phosphatase panel was developed at AbbVie to assess IC50 values on select phosphatases. The following enzymes used in the phosphatase selectivity panel were purchased from Eurofins: PTPN1 (PTP1B; 14–621), PTPN2 (TC-PTP; 14–646), PTPN9 (14–592), SHP1 (14–591) and SHP2 (14–622). The catalytic activity of the phosphatase was monitored using the small-molecule substrate DiFMUP (ThermoFisher) in a fluorescence assay format. In brief, the phosphatase reactions were performed at room temperature in the following assay buffer: 50 mM HEPES, pH 7.2, 100 mM NaCl, 1 mM EDTA, 0.005% Tween-20 and 5 mM TCEP. Each phosphatase was incubated with increasing concentrations of AC484 for 5 min, after which the substrate DiFMUP was added and incubated at 25 °C for 30 min. The final concentration of the enzyme and substrate was maintained at 0.5 nM and 5 μM, respectively, in all the assays. The reaction was then quenched by the addition of a 100 μM solution of bpV(Phen) (Enzo Life Sciences). The fluorescence signal was monitored using an Envision microplate reader (Perkin-Elmer) using excitation and emission wavelengths of 340 nm and 450 nm, respectively. The dose–response curves for the inhibitors were analysed using normalized IC50 regression curve fitting with control-based normalization. Supplementary file 41586_2023_6575_MOESM4_ESM.xlsx: Supplementary Table 2 AC484 receptor selectivity screen.

A further experiment addresses T6, AT1 (h) (Homo sapiens, UniProt P30556).
T6 construct: gene AGTR1
In words: biochemical. Details: Safety pharmacology off-target panel at Eurofins, radioligand binding with agonist or antagonist radioligand (Supplementary Table 2). The following applies: antagonist radioligand. As to the method: as §1

A further experiment addresses T7, H1 (Homo sapiens, UniProt P35367).
T7 construct: gene HRH1
Description: biochemical. The following applies: antagonist radioligand. Details: Safety pharmacology off-target panel at Eurofins, radioligand binding with agonist or antagonist radioligand (Supplementary Table 2). As to the method:
as §1

For another experiment, the target named is T8, b2 (h) (Homo sapiens, UniProt P07550).
T8 construct: gene ADRB2
Description: biochemical. The following applies: antagonist radioligand. Further details: Safety pharmacology off-target panel at Eurofins, radioligand binding with agonist or antagonist radioligand (Supplementary Table 2). As to the method:
as §1

The next experiment concerns the target T9, CCK1 (CCKA) (Homo sapiens, UniProt P32238).
T9 construct: gene CCKAR
Description: biochemical. The following applies: agonist radioligand. Details: Safety pharmacology off-target panel at Eurofins, radioligand binding with agonist or antagonist radioligand (Supplementary Table 2). As to the method:
as §1

Another experiment concerns the target T10, PTPN2 (Homo sapiens, UniProt P17706).
T10 construct: Met1–Asn314, C-terminal 8× histidine tag (crystal); full-length recombinant (IC50)
Description: X-ray crystal structure (soak); mobility shift enzyme assay IC50. Type of experiment: biochemical. The source says:
X-ray crystal structure (soak); mobility shift enzyme assay IC50 on PTPN2 | The crystal structure of the PTPN2 protein with AC484 confirmed the formation of several crucial interactions in the active site

Chain of Zap70 (P43403 whole entry): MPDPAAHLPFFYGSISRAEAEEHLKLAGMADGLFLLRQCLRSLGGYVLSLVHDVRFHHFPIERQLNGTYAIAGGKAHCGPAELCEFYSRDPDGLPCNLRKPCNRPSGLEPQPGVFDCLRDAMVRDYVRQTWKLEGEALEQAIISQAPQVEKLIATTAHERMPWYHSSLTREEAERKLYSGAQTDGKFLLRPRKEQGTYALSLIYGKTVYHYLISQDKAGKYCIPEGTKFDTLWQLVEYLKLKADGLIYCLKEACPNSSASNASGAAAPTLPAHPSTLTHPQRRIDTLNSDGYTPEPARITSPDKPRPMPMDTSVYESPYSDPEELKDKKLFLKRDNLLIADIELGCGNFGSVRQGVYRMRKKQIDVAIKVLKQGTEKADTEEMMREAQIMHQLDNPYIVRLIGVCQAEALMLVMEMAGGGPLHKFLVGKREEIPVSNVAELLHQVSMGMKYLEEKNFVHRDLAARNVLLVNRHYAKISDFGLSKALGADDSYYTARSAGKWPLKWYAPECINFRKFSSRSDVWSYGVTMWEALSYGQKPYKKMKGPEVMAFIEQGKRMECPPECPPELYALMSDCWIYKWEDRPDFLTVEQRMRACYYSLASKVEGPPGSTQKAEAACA
Chain of FGR (P09769 whole entry): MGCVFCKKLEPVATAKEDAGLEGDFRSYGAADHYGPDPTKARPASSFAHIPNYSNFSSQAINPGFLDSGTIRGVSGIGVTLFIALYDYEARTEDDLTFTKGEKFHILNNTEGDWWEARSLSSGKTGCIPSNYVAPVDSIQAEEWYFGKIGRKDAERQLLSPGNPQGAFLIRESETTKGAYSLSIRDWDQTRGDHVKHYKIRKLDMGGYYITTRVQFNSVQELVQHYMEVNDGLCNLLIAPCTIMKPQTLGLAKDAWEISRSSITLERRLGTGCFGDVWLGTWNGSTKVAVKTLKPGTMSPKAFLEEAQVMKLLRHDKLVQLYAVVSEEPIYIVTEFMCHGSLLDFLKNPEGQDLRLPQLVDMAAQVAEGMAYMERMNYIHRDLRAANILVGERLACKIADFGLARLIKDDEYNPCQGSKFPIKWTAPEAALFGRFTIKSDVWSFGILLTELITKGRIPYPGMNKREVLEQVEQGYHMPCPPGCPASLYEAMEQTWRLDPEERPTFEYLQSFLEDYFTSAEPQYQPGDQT
Chain of TXK (P42681 whole entry): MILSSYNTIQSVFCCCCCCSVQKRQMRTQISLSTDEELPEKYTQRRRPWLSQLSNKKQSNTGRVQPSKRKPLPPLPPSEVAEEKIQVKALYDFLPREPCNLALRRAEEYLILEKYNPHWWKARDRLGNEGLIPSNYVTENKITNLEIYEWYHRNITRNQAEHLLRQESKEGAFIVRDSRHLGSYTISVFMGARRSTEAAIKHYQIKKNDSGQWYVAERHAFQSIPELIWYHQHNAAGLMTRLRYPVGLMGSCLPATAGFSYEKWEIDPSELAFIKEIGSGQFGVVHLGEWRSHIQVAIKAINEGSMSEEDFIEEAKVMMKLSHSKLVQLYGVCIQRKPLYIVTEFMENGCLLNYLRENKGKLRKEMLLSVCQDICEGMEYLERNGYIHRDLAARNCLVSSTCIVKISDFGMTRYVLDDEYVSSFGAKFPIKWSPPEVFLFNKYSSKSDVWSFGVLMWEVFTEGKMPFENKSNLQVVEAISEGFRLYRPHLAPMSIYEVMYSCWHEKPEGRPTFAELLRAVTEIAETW
T8 sequence (P07550 whole entry): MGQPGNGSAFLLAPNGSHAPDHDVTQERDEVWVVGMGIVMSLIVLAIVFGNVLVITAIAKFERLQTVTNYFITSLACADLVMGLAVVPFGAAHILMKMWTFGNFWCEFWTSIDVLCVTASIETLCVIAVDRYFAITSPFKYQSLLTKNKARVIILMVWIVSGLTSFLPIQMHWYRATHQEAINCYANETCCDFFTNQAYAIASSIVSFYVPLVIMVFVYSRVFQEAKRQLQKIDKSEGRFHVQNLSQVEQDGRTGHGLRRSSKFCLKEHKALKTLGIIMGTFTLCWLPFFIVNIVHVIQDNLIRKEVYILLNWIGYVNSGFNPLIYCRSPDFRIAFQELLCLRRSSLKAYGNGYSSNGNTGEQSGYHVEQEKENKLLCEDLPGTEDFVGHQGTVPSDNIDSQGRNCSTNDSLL
Chain of CAMKK2 (Q96RR4 whole entry): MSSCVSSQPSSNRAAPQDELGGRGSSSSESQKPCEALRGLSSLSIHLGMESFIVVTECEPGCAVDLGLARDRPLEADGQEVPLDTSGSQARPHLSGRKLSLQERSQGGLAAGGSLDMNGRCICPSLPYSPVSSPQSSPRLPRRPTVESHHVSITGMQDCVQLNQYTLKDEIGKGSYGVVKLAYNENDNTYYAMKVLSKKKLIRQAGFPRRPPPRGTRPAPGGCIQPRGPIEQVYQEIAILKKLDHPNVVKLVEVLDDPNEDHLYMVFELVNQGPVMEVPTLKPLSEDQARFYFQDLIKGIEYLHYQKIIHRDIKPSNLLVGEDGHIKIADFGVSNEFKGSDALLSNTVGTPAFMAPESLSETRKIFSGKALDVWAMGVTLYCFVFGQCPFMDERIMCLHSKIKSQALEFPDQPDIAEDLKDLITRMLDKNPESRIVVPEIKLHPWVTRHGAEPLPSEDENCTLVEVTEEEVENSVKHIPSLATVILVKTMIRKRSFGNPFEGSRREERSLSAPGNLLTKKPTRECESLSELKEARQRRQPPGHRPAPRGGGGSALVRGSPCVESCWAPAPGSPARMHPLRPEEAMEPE
T9 sequence (P32238 whole entry): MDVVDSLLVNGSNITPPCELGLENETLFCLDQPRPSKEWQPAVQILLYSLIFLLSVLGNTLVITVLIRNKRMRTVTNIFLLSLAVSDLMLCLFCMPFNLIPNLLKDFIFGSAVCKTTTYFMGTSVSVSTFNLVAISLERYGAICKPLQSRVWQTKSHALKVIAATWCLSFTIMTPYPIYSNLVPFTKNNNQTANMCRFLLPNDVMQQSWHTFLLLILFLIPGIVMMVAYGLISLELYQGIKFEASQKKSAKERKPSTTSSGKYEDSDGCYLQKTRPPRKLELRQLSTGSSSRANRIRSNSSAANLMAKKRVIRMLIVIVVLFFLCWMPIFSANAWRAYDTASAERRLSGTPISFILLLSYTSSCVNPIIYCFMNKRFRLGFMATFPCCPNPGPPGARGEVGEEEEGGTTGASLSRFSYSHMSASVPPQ
T10 sequence (P17706 1-314): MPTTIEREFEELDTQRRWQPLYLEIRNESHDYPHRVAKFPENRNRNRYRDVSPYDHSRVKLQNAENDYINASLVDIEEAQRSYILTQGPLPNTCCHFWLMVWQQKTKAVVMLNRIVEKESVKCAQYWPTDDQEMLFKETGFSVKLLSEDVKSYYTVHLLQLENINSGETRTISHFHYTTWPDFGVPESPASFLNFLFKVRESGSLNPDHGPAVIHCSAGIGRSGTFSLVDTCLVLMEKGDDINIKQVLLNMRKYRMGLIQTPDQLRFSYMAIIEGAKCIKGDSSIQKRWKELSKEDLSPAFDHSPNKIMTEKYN
Chain of CDK8/Cyclin C (P49336 whole entry): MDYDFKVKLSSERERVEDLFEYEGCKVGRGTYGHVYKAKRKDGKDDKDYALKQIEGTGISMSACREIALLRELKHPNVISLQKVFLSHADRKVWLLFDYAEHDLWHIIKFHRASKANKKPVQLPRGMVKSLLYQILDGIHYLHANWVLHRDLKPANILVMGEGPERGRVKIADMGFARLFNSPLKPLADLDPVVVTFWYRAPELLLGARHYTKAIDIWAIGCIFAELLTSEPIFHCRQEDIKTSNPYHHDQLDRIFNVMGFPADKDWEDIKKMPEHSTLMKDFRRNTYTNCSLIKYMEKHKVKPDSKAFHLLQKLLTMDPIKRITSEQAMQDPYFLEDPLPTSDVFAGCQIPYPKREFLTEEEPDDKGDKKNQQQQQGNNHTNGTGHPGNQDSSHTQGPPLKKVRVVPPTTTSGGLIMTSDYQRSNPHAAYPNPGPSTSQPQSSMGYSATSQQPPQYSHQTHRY
Chain of CDK8/Cyclin C (P24863 whole entry partner): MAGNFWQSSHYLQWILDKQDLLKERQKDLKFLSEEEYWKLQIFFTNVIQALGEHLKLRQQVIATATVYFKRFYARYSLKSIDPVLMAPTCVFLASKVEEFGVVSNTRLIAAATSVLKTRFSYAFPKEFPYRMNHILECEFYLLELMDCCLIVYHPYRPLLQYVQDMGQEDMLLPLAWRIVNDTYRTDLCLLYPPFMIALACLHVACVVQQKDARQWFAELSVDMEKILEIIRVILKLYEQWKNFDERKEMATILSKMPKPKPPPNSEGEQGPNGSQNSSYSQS
T6 sequence (P30556 whole entry): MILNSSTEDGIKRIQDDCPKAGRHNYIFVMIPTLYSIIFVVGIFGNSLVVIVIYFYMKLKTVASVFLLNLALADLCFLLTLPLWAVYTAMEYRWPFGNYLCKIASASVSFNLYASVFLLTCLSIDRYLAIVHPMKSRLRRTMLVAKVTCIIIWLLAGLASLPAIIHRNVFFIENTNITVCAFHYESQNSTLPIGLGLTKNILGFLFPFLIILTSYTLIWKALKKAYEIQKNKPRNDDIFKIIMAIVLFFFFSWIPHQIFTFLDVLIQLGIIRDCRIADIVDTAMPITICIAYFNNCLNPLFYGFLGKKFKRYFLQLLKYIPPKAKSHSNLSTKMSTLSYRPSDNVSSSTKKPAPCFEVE
Chain of CAMK1D (Q8IU85 whole entry): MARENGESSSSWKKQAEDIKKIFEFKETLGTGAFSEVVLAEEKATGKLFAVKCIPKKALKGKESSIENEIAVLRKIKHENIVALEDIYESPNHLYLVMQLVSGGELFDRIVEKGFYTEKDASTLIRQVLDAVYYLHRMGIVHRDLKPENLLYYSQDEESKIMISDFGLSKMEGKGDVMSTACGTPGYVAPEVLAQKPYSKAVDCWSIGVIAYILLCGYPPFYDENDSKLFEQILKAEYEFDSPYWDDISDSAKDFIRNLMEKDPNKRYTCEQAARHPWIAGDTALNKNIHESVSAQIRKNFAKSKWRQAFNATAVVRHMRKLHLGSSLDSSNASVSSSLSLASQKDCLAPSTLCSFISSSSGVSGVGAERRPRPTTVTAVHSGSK

In the case of `CC(C)CCN[C@@H]1CCc2cc(O)c(N3CC(=O)NS3(=O)=O)c(F)c2C1` [AC484, ABBV-CLS-484], the IC50 at ITK, against MAP2K3, on CAMKK2, at CDK8/Cyclin C, against CAMK1D and against Zap70 was above 10 µM each time. In addition, the IC50 at Pim1, against ACVR1, on Zipk, on TAK1-TAB1, against ErbB4 and at PKC alpha-UBI was above 10 µM throughout. In addition, the IC50 – broadly, the point on the concentration scale where inhibition reaches its midpoint – on FGR was above 10 µM; on TXK it was above 10 µM; on PTPN1 it was 2.5 nM; at PTPN2, 1.8 nM. In addition, the AC50 at B2, on AT1 (h), on H1, on b2 (h) and on CCK1 (CCKA) was above 0.01 mM in each case.
